{Cy5.5} = Cy5.5 cyanine dye label
Experiments:
[1] = Heat denaturing and reannealing of hairpin probes (probe integrity); type: physicochemical; details: ROX internal reference; above background; FIG. 1C
Protocol: To ensure the integrity of the DNA probes, it was tested whether a heat denaturing of the hairpins would cause an increase in fluorescence, and if a reannealing would reverse it. To compensate for thermal change of fluorophore's emission, the ROX fluorophore was added to tested probes as an internal reference.
(§1) All cell-free experiments were performed using the Bio-Tek Synergy 5 fluorescent plate reader. Before experiments, optimal excitation and emission wavelengths were determined. For this, excitation and emission were scanned in the ranges of 600-680 nm and 690-705 nm, respectively. The optimal excitation/emission was determined to be 665/703 nm. All kinetic and endpoint measurements were done in a total volume of 100 μl at 37° C. Unless stated otherwise, DNA substrate was used in final concentration 0.5 μM reconstituted in endonuclease activity assay (EAA) buffer (2 mM CaCl2, 5 mM MgCl2, 10 mM Tris-HCl, pH 7.4) in a 96-well plate. After measurement of starting fluorescence, DNase I or tested material (diluted 1:20 urine or 1:100 serum) were added to the reconstituted probe, rapidly mixed and fluorescence was monitored for up to 60 min with 30-sec intervals. In some instances, EDTA (final concentration 200 μM) or NaOH (50 mM) was added to terminate the reaction. For the experiments that involved assessment of fluorescence after DNA denaturing, probes were tested in Cepheid real-time PCR system using Cy5 setting (Sunnyvale, Calif.).

[2] = Baseline fluorescence of hairpin DNA probes; type: physicochemical; details: correlated with length of protruded DNA end; FIG. 1B
Excerpt: It was impossible to determine if the background fluorescence was attributed to the probe or it originated from a partial degradation of the probe. Consequently, the NIRF probes were designed as hairpins to allow testing the integrity of DNA by its denaturing followed by reannealing. The use of hairpin also allows easy measurement of the maximum fluorescence of the probe. The distance between two fluorophores varied by changing of protruding DNA strand length from +0 (AB259.1 probe) to +5 (AB259.3 probe) or to +10 (AB259.5 probe) as shown in FIG. 1A. The baseline fluorescence of probe AB259.1 was 30% higher than negative control without a probe (FIG. 1B).
as §1

[3] = system: wild-type (WT) mouse kidney cryosections; assay: Endonuclease activity ex vivo in kidney cryosections; details: 5 μM probe, EAA buffer, 37° C.
Protocol: Next it was examined whether AB259.3 probe can be used for measurement of endonuclease activity in tissue sections. Kidneys were used because they are known for high activity of DNase I (Ca/Mg-dependent endonuclease). Freshly prepared 10 μm thick cryosections of wild-type (WT) mouse kidney were exposed with 5 μM AB259.3 probe in presence of EAA buffer at 37° C. and time-lapse imaged for 10 min with 1-min intervals.
Specimens of kidney, liver, spleen and testis tissues were removed from euthanized mice, immersed in OCT medium, rapidly frozen by Fisher Freeze-it and kept on dry ice for no longer than 1 hour prior slicing. Tissue cryosections (8-μm thick) were prepared using the Microm HM 505E cryotome, placed to the Fisher Plus slides and immediately exposed with 0.5 μM AB259.3 probe diluted in EAA buffer. In control samples, applied probe contained EAA buffer supplemented with 200 μM EDTA. Images were taken in 628/40-692/40 spectrum every 30 sec for 10 min in 10 random XY coordinates. Three sections from each specimen were analyzed separately. Maximal velocity of increasing fluorescence was averaged for each section.

[4] = system: WT and DNase I KO mice; assay: Intravital assessment in other organs (bilateral kidney ligation or cationic liposomes); details: imaging 3 hours after injection; FIGS. 10A and 10B
Protocol: To check an ability of probe to measure endonuclease activity on other organs, the renal distribution of AB259.3 probe was challenged by two complementary approaches. First group of mice was subjected to bilateral kidney ligation followed by intravital administration of AB259.3 probe and imaging in 3 hours after injection. […] Another group of mice was injected with AB259.3 probe packed in cationic liposomes in attempt to make probe delivery bioavailable to all organs and tissues and less specific to kidneys.
Male DNase I KO mice and their WT counterparts at the age 8-10 weeks were used for all experiments. All procedures with mice were performed under general anesthesia with 50 mg/kg ketamine. For subcutaneous administration, mice were injected with 10 μl of 0.1 μM AB259.3 in the dorsal subcutaneous site. For systemic visualization, AB259.3 was injected intravenously at 50 nmol/kg in tail vein. […] Bilateral kidney ligation was performed on anesthetized DNase I KO or WT mice. Renal pedicles were surgically ligated using 4.0 silk sutures. […]
Imaging of live and euthanized mice or their isolated organs were performed using Xenogen IVIS Image System 200 (Caliper Life Sciences, Hopkinton, Mass.) equipped with Living Image® Software. […] Quantification of the manually designated areas was performed based on average radiant efficiency with the fixed min-max dynamic range.

[5] = system: WT and DNase I KO mice; assay: Cy5.5 fluorescence in organs isolated after intravenous probe injection (Xenogen-IVIS); type: in vivo, mouse; details: 50 nmol/kg intravenous, 1 or 3 hours after injection; FIG. 6
Protocol: In the next set of experiments, it was tested whether AB259.3 probe is suitable for in vivo measurement of DNase I and endonuclease activity in internal organs. For this, WT and DNase I KO mice were subjected to intravenous administration of AB259.3 probe (50 nmol/kg). The organs including brain, heart, lung, muscle, bone (femur), liver, pancreas, salivary gland, jejunum, spleen, kidney and testicles were collected in 1 or 3 hours after injection and measured for Cy5.5 fluorescence using a Xenogen-IVIS instrument. […] Kidneys, pancreas, salivary glands and lungs were among those that had the most prominent relative increase of Cy5.5 fluorescence in WT mice with markedly lower level of fluorescence in DNase I KO mice. Despite highest absolute fluorescence values in gut and liver, relative gain of fluorescence in these organs was quite modest due to the high background autofluorescence.
Kidney ischemia-reperfusion was performed as previously reported. […] The liposomes were prepared as described previously.

[6] = system: WT mice; assay: Histological distribution of probe in kidneys; type: in vivo, mouse; details: 50 nmol/kg intravenous
Protocol: It was assessed whether AB259.3 probe is specifically accumulated in any renal compartments or its accumulation in the kidney is simply due to the excretion with urine. For this, WT mice were administered intravenously with 50 nmol/kg of AB259.3 probe and kidneys were collected in 1 or 3 hours, frozen, cryosectioned and examined under fluorescent microscope in 628/40-692/40 spectrum. […] Morphologically, fluorescence was detected mainly in membranous parts of the epithelial cells, such as basolateral and, to lesser extent, at apical surface.

## [Cy5.5]AACACTCCGATGAGTGTAGAATGT[Cy5.5] (DNA, 5' {Cy5.5}, 3' {Cy5.5}, backbone not given here) [AB259.3, hairpin DNA probe with Cy5.5 at both ends, protruding strand +5]
[1]
  gain of fluorescence on heat denaturing: 2.8 times
[2]
  baseline fluorescence (in words): much higher levels of the baseline fluorescence
[3]
  time to plateau of fluorescence: 2 to 3 min
[3]; 10 min, FIGS. 5A and 5B
  increase of Cy5.5 fluorescence compared to starting point: 2.5 times
[4]
  probe accumulation after bilateral kidney ligation: accumulation in kidneys was completely abolished
[5]
  organ fluorescence after injection (in words): kidneys appeared to be the most visibly distinctive organ
[6]; 1 hour
  renal localisation of activated probe at 1 hour: cortical compartment, and mainly proximal tubules already contained significant amount of activated AB259.3 probe
[6]; 3 hours, FIG. 8
  renal localisation of activated probe at 3 hours: started to appear in medullar compartment and distal tubules
